“And” between values parts separate entries of the source, which are not always exact repeats. Equal entries are not always repeated. Where two headings read alike, the source gives them in different places.
Assay: Plasma pharmacokinetics after oral multi-dose anatabine polacrilex
Format: in vivo, Sprague-Dawley rats
Conditions: for Anatabine Concentration in rat plasma: dose 2 mg/kg; for Avg. Conc. of anatabine in plasma: dose group 2, female; for concentration at 30 min / concentration at 60 min / concentration at 235 min / concentration at 270 min / concentration at 300 min / concentration at 475 min / concentration at 540 min / concentration at 600 min / concentration at 720 min / Tmax / half-life: Sprague-Dawley, rat, plasma; for concentration at 30 min / concentration at 60 min / concentration at 235 min / concentration at 270 min / concentration at 300 min / concentration at 475 min / concentration at 540 min / concentration at 600 min / concentration at 720 min: oral; for Tmax / half-life: po; for half-life: mean
Protocol: This study consisted of two groups of 8 animals each, 4 males and 4 females.
Two formulations were prepared; one for each of the two treatment groups. The test compound was formulated for each treatment group just prior to the first dose administration and constantly stirred until dosing was completed (Table 37). Four aliquots of each dose level formulation were collected and stored at −80° C.
The animals were weighed prior to dosing and received three doses p.o. of test compound at a volume of 5 mL/kg. Blood was collected via the venus plexus (retro-orbital) into tubes containing (K2) EDTA. No more than 0.5 mL was collected per time point.
Plasma was separated as per package instructions for MICROTAINER® brand collection tubes (3 minutes, 2000×g). Plasma was decanted into microfuge tubes and stored at −80° C. Remaining test compound was placed at −80° C.
Sample preparation. Plasma samples were treated with three volumes of methanol containing internal standard at 1 μM (R,S)-Antabine-2,4,5,6-d4), incubated 10 min at 4° C., and centrifuged. The amount of the test agent in the supernatant was determined by LC/MS/MS.
Analysis. Samples were analyzed by LC/MS/MS using an Agilent 6410 mass spectrometer coupled with an Agilent 1200 high pressure liquid chromatography (HPLC) and a CTC PAL chilled autosampler, all controlled by MassHunter software (Agilent). After separation on a Hydrophilic interaction liquid chromatography (HILIC) HPLC column (Sepax) using an acetonitrile-ammonium acetate/acetic acid gradient system, peaks were analyzed by mass spectrometry (MS) using ESI ionization in multiple reaction monitoring (MRM) mode. MassHunter software was used to calculate the concentration of the test compounds in samples from the peak area using the appropriate calibration curves.
Calibration samples. Calibration curves were determined in rat plasma. Calibration samples were prepared by diluting a 50× stock solution of the test compound in PBS with blank matrix to the appropriate concentration and these samples were prepared as described above in the sample preparation.
Data Analysis. Descriptive statistics were calculated for all pharmacokinetic parameters. Elimination half-lives (t1/2) were calculated by linear regression of logarithmically transformed plasma concentration data for each period between doses and following the final dose.
Total areas under the plasma concentration curves (AUC) and under the first moment curves (AUMC) were calculated using linear trapezoidal summation across all concentration time points as well as for intervals between each dose administration and following the final dose. […] Mean absorption times (MAT) were calculated according to the following relation: […]
where MRT represents the mean residence time. This was calculated from the mean residence times.
The statistical comparison of parameters between male and female animals was made using a two-tailed, unpaired, t-test with a 95 percent confidence interval. Repeated-measures analysis of variance (ANOVA) was used for multiple comparisons of Cp, max involving successive determinations on the same group of animals.

[1] = females, 6.0 mg/kg BW group, anatabine polacrilex p.o.

C1=CCC(c2cccnc2)NC1 (racemic) [Anatabine, 1,2,3,6-tetrahydro-[2,3′]bipyridinyl]
Anatabine Concentration in rat plasma (female, 270 min, individual animals 4A-4D): 324 ng/mL and 350 ng/mL | Anatabine Concentration in rat plasma (female, 300 min, individual animals 4A-4D): 216 ng/mL and 97 ng/mL and 191 ng/mL and 414 ng/mL | Anatabine Concentration in rat plasma (female, 475 min, individual animals 4A-4D): 219 ng/mL and 178 ng/mL and 179 ng/mL | Anatabine Concentration in rat plasma (female, 540 min, individual animals 4A-4D): 231 ng/mL and 314 ng/mL and 369 ng/mL and 474 ng/mL | Anatabine Concentration in rat plasma (female, 600 min, individual animals 4A-4D): 197 ng/mL and 207 ng/mL and 480 ng/mL and 288 ng/mL | Anatabine Concentration in rat plasma (female, 720 min, individual animals 4A-4D): 165 ng/mL and 217 ng/mL | Anatabine Concentration in rat plasma (male, 235 min, individual animals 3A-3D): 46 ng/mL and 63 ng/mL and 105 ng/mL | Anatabine Concentration in rat plasma (male, 270 min, individual animals 3A-3D): 364 ng/mL and 309 ng/mL | Anatabine Concentration in rat plasma (male, 300 min, individual animals 3A-3D): 232 ng/mL and 202 ng/mL | Anatabine Concentration in rat plasma (male, 475 min, individual animals 3A-3D): 97 ng/mL | Anatabine Concentration in rat plasma (male, 540 min, individual animals 3A-3D): 290 ng/mL and 173 ng/mL | Anatabine Concentration in rat plasma (male, 600 min, individual animals 3A-3D): 173 ng/mL and 130 ng/mL and 150 ng/mL | Anatabine Concentration in rat plasma (male, 720 min, individual animals 3A-3D): 401 ng/mL and 137 ng/mL and 71 ng/mL | Avg. Conc. of anatabine in plasma (30 min): 160 ng/mL | Avg. Conc. of anatabine in plasma (60 min): 129 ng/mL | Avg. Conc. of anatabine in plasma (235 min): 44 ng/mL | Avg. Conc. of anatabine in plasma (270 min): 316 ng/mL | Avg. Conc. of anatabine in plasma (300 min): 234 ng/mL | Avg. Conc. of anatabine in plasma (540 min): 386 ng/mL | Avg. Conc. of anatabine in plasma (600 min): 325 ng/mL | Avg. Conc. of anatabine in plasma (720 min): 208 ng/mL | concentration at 30 min (female, 0.2 mg/kg BW, Avg. Conc. of anatabine in plasma, dose group 0.2, female, 30 min): 37 ng/mL | concentration at 60 min (female, 0.2 mg/kg BW, Avg. Conc. of anatabine in plasma, dose group 0.2, female, 60 min): 35 ng/mL | concentration at 235 min (female, 0.2 mg/kg BW, Avg. Conc. of anatabine in plasma, dose group 0.2, female, 235 min): 12 ng/mL | concentration at 270 min (female, 0.2 mg/kg BW, Avg. Conc. of anatabine in plasma, dose group 0.2, female, 270 min): 26 ng/mL | concentration at 300 min (female, 0.2 mg/kg BW, Avg. Conc. of anatabine in plasma, dose group 0.2, female, 300 min): 34 ng/mL | concentration at 475 min (female, 0.2 mg/kg BW, Avg. Conc. of anatabine in plasma, dose group 0.2, female, 475 min): 8 ng/mL | concentration at 540 min (female, 0.2 mg/kg BW, Avg. Conc. of anatabine in plasma, dose group 0.2, female, 540 min): 34 ng/mL | concentration at 600 min (female, 0.2 mg/kg BW, Avg. Conc. of anatabine in plasma, dose group 0.2, female, 600 min): 28 ng/mL | concentration at 720 min (female, 0.2 mg/kg BW, Avg. Conc. of anatabine in plasma, dose group 0.2, female, 720 min): 12 ng/mL | concentration at 30 min (female, 0.2 mg/kg, Anatabine Concentration in rat plasma, 30 min, individual animals 2A-2D): 34 ng/mL | concentration at 60 min (female, 0.2 mg/kg, Anatabine Concentration in rat plasma, 60 min, individual animals 2A-2D): 29 ng/mL | concentration at 475 min (female, 0.2 mg/kg, Anatabine Concentration in rat plasma, 475 min, individual animals 2A-2D): 7 ng/mL | concentration at 540 min (female, 0.2 mg/kg, Anatabine Concentration in rat plasma, 540 min, individual animals 2A-2D): 24 ng/mL | concentration at 270 min (female, 2 mg/kg, Anatabine Concentration in rat plasma, 270 min, individual animals 4A-4D): 237 ng/mL | concentration at 475 min (female, 2 mg/kg, Anatabine Concentration in rat plasma, 475 min, individual animals 4A-4D): 144 ng/mL | concentration at 720 min (female, 2 mg/kg, Anatabine Concentration in rat plasma, 720 min, individual animals 4A-4D): 186 ng/mL | Tmax (female, 0.6 mg/kg, female rats, after dose 1, mean, read-out: Tmax(1)): 0.63 h | Tmax (female, 0.6 mg/kg, female rats, after dose 2, mean, read-out: Tmax(2)): 0.88 h | Tmax (female, 0.6 mg/kg, female rats, after dose 3, mean, read-out: Tmax(3)): 1.25 h | half-life (female, 0.6 mg/kg, female rats, after first dose, read-out: t1/2,0→4 (converted)): 2.06 h | half-life (female, 0.6 mg/kg, female rats, read-out: t1/2, terminal (converted)): 1.8 h | Tmax (female, 6 mg/kg, female rats, after dose 1, mean, read-out: Tmax(1)): 0.5 h | Tmax (female, 6 mg/kg, female rats, after dose 2, mean, read-out: Tmax(2)): 0.63 h | Tmax (female, 6 mg/kg, female rats, after dose 3, mean, read-out: Tmax(3)): 1.25 h | half-life (female, 6 mg/kg, female rats, after first dose, read-out: t1/2,0→4 (converted)): 1.82 h | half-life (female, 6 mg/kg, female rats, read-out: t1/2, terminal (converted)): 3.99 h | half-life (female, both treatment groups combined, female rats, read-out: t1/2,0→4 (converted)): 1.94 h | Cp, max, initial value (increase from) [1]: 259.8 ± 35.4 ng/mL | Cp, max, later value (increase to) [1]: 374.8 ± 122.9 ng/mL | Cp, min, first minimum [1]: 51.5 ± 26.0 ng/mL | Cp, min(2), second minimum (females, 6.0 mg/kg BW group, anatabine polacrilex p.o., 6 mg/kg): 180 ± 31 ng/mL and 180.0 ± 30.7 ng/mL | concentration at 300 min (male, 0.2 mg/kg BW, Avg. Conc. of anatabine in plasma, dose group 0.2, male, 300 min): 26 ng/mL | concentration at 475 min (male, 0.2 mg/kg BW, Avg. Conc. of anatabine in plasma, dose group 0.2, male, 475 min): 18 ng/mL | concentration at 540 min (male, 0.2 mg/kg BW, Avg. Conc. of anatabine in plasma, dose group 0.2, male, 540 min): 38 ng/mL | concentration at 600 min (male, 0.2 mg/kg BW, Avg. Conc. of anatabine in plasma, dose group 0.2, male, 600 min): 29 ng/mL | concentration at 720 min (male, 0.2 mg/kg BW, Avg. Conc. of anatabine in plasma, dose group 0.2, male, 720 min): 12 ng/mL | concentration at 30 min (male, 0.2 mg/kg, Anatabine Concentration in rat plasma, 30 min, individual animals 1A-1D): 29 ng/mL | concentration at 60 min (male, 0.2 mg/kg, Anatabine Concentration in rat plasma, 60 min, individual animals 1A-1D): 32 ng/mL | concentration at 235 min (male, 0.2 mg/kg, Anatabine Concentration in rat plasma, 235 min, individual animals 1A-1D): 11 ng/mL | concentration at 270 min (male, 0.2 mg/kg, Anatabine Concentration in rat plasma, 270 min, individual animals 1A-1D): 35 ng/mL | concentration at 300 min (male, 0.2 mg/kg, Anatabine Concentration in rat plasma, 300 min, individual animals 1A-1D): 22 ng/mL | concentration at 30 min (male, 0.2 mg/kg, Avg. Conc. of anatabine in plasma, dose group 0.2, male, 30 min): 33 ng/mL | concentration at 60 min (male, 0.2 mg/kg, Avg. Conc. of anatabine in plasma, dose group 0.2, male, 60 min): 30 ng/mL | concentration at 235 min (male, 0.2 mg/kg, Avg. Conc. of anatabine in plasma, dose group 0.2, male, 235 min): 11 ng/mL | concentration at 270 min (male, 0.2 mg/kg, Avg. Conc. of anatabine in plasma, dose group 0.2, male, 270 min): 26 ng/mL | concentration at 30 min (male, 2 mg/kg BW, Avg. Conc. of anatabine in plasma, dose group 2, male, 30 min): 243 ng/mL | concentration at 235 min (male, 2 mg/kg BW, Avg. Conc. of anatabine in plasma, dose group 2, male, 235 min): 72 ng/mL | concentration at 270 min (male, 2 mg/kg BW, Avg. Conc. of anatabine in plasma, dose group 2, male, 270 min): 303 ng/mL | concentration at 300 min (male, 2 mg/kg BW, Avg. Conc. of anatabine in plasma, dose group 2, male, 300 min): 183 ng/mL | concentration at 475 min (male, 2 mg/kg BW, Avg. Conc. of anatabine in plasma, dose group 2, male, 475 min): 97 ng/mL | concentration at 540 min (male, 2 mg/kg BW, Avg. Conc. of anatabine in plasma, dose group 2, male, 540 min): 226 ng/mL | concentration at 600 min (male, 2 mg/kg BW, Avg. Conc. of anatabine in plasma, dose group 2, male, 600 min): 151 ng/mL | concentration at 720 min (male, 2 mg/kg BW, Avg. Conc. of anatabine in plasma, dose group 2, male, 720 min): 203 ng/mL | concentration at 475 min (male, 2 mg/kg, Anatabine Concentration in rat plasma, 475 min, individual animals 3A-3D): 79 ng/mL | concentration at 540 min (male, 2 mg/kg, Anatabine Concentration in rat plasma, 540 min, individual animals 3A-3D): 214 ng/mL | Tmax (male, 0.6 mg/kg, male rats, after dose 1, mean, read-out: Tmax(1)): 0.75 h | Tmax (male, 0.6 mg/kg, male rats, after dose 2, mean, read-out: Tmax(2)): 0.63 h | Tmax (male, 0.6 mg/kg, male rats, after dose 3, mean, read-out: Tmax(3)): 1 h | half-life (male, 0.6 mg/kg, male rats, after first dose, read-out: t1/2,0→4 (converted)): 2.05 h | half-life (male, 0.6 mg/kg, male rats, read-out: t1/2, terminal (converted)): 1.78 h | Tmax (male, 6 mg/kg, male rats, after dose 1, mean, read-out: Tmax(1)): 0.63 h | Tmax (male, 6 mg/kg, male rats, after dose 2, mean, read-out: Tmax(2)): 0.63 h | Tmax (male, 6 mg/kg, male rats, after dose 3, mean, read-out: Tmax(3)): 2 h | half-life (male, 6 mg/kg, male rats, after first dose, read-out: t1/2,0→4 (converted)): 1.76 h | half-life (male, 6 mg/kg, male rats, read-out: t1/2, terminal (converted)): 5.07 h | half-life (male, both treatment groups combined, male rats, read-out: t1/2,0→4 (converted)): 1.92 h
